The text below walks through data of patent publication US8598145B2, “Mitochondrially delivered anti-cancer compounds” (priority 2008, dated 2013).

Common to all, as to type: cell-based, human
The subject of assay [1] is MS cells derived from MCF7 cells. The experiment in a line: Drug induced cell death in mammosphere cells (FIG. 8). As to conditions: for sensitivity of MS cells to drug induced cell death: 5 μM MitoVES, 50 μM α-TOS or 10 μM parthenolide. As for the experimental part: (§1) Adherent MCF7 cells and the corresponding mammosphere cells (MS) were cultured and assessed for morphological changes by microscopy (A) and for expression levels of markers as indicators of “sternness” by RT-PCR (B) and flow cytometry (C), including the expression of CD44 and CD24 (D). The adherent MCF7 cells (E) and the MS cells (F) were treated with 5 μM MitoVES, 50 μM α-TOS or 10 μM parthenolide and assessed for their sensitivity to drug induced cell death. […] Adherent MCF7 cells (I) and MS cells (J) were treated for 3 h with α-TOS (50 μM) or MitoVES homologues containing different lengths in the aliphatic side chain (5 μM each, either 11, 7 or 5 carbon chain in length) and the treated cells assessed for production of reactive oxygen species (ROS) by flow cytometry.

Assay [2] deals with Jurkat. The experiment in a line: MTT viability assay (IC50). The text has this:
(§2) The following cell lines used in this study were obtained from ATCC, unless specified otherwise: Human T lymphoma cells Jurkat, human mesothelioma cells Meso-I, MM-BI, Ist-Mes, Ist-Mes-2 (Pass, H. I. et al. Characteristics of nine newly derived mesothelioma cell lines. Ann. Thorac. Surg. 59, 835-844 (1995)), human breast cancer cells MCF-7 (erbB2-low) and MDA-MB-453 (erbB2-high), human colorectal cells HCT-116, human hepatocarcinoma cells Huh-7, mouse mesothelioma cells AE17 (Jackaman, C. et al. IL-2 intratumoral immunotherapy enhances CD8+ T cells that mediate destruction of tumor cells and tumor-associated vasculature: a novel mechanism for IL-2. J. Immunol. 171, […] (2003), human non-malignant mesothelial cells Met-5A, […] (Claycomb, W. C. et al. HL-1 cells: a cardiac muscle cell line that contracts and retains phenotypic characteristics of the adult cardiomyocyte. Proc. Natl. Acad. Sci. USA 95, 2979-2984 […]) and H9c2, and the human endothelial-like cells EAhy926 (Edgell, C. J., McDonald, C. C. & Graham, J. B. Permanent cell line expressing human factor VIII-related antigen established by hybridization. Proc. Natl. Acad. Sci. USA 80, 3734-3737 (1983)). Jurkat cells were grown in the RPMI medium while DMEM was used for other malignant cell lines and for Met-5A cells, supplemented with 10% FCS and antibiotics. HL-1 cells, maintained in fibronectin/gelatine-coated dishes, were grown in the Claycomb medium supplemented with noradrenalin (Claycomb, W. C. et al. HL-1 cells: a cardiac muscle cell line that contracts and retains phenotypic characteristics of the adult cardiomyocyte. Proc. Natl. Acad. Sci. USA 95, 2979-2984 […]), EAhy926 cells were grown in complete DMEM supplemented with HAT (Edgell, C. J., McDonald, C. C. & Graham, J. B. Permanent cell line expressing human factor VIII-related antigen established by hybridization. Proc. Natl. Acad. Sci. USA 80, 3734-3737 (1983)). Cells deficient in mtDNA (ρ^0 phenotype) were prepared as detailed in Weber, T. et al., (Mitochondria play a central role in apoptosis induced by α-tocopheryl succinate, an agent with anticancer activity. Comparison with receptor-mediated pro-apoptotic signaling. Biochemistry 42, 4277-4291 (2003)). Acquisition of the ρ^0 phenotype was confirmed by lack of expression by the cells of the mtDNA-encoded cytochrome c oxidase subunit II (COXII not shown). Chinese hamster lung fibroblasts deficient in complex I (B10 cells) (See, B. B. et al. Molecular remedy of complex I defects: rotenone-insensitive internal NADH-quinone oxidoreductase of Saccharomyces cerevisiae mitochondria restores the NADH oxidase activity of complex I-deficient mammalian cells. Proc. Natl. Acad. Sci. USA 95, 9167-9171 (1998)) and complex II (CybL^−/−; B9 cells) (Oostveen, F. G., Au, H. C., Meijer, P. J. & Scheffler, I. E. A Chinese hamster mutant cell line with a defect in the integral membrane protein CII-3 of complex II of the mitochondrial electron transport chain. J. Biol. Chem. 270: 26104-26108 (1995)) as well as the parental cells (B1 cells) (Oostveen, F. G., Au, H. C., Meijer, P. J. & Scheffler, I. E. A Chinese hamster mutant cell line with a defect in the integral membrane protein CII-3 of complex II of the mitochondrial electron transport chain. J. Biol. Chem. 270: 26104-26108 (1995)) were grown in DMEM with 10% FCS, antibiotics, 10 mg/ml glucose and non-essential aminoacids.
(§3) Toxicity of α-TOS, VE11S (“VES”), MitoVE3S, MitoVE5S, MitoVE7S, MitoVE9S, MitoVE11S (“MitoVES”), MitoVE11AE (“MitoVEAE”), MitoVE11F (“MitoVEF”), MitoVE11M (“MitoVEM”), and VES4TPP towards cancer cells was assessed on the basis of IC50, as detailed in Turanek, J., et al. ((2008). Liposomal formulation of vitamin E analogs as an efficient and selective anti-cancer treatment. Clin. Cancer Res. (submitted)). […]

Assay [3] deals with Met5A. The experiment in a line: MTT viability assay (IC50). The settings on record: ~60% confluency.
From the text: as §2, §3

Assay [4] has as its system Ist-Mes-2. Briefly: MTT viability assay (IC50). The settings on record: Ist-Mes-2, ~60% confluency.
From the text: as §2, §3

Assay [5] concerns Meso-2. Briefly: MTT viability assay (IC50). The settings on record: Meso-2, ~60% confluency.
From the text: as §2, §3

The subject of assay [6] is MDA-MB-453. The experiment in a line: MTT viability assay (IC50). As to conditions: MDA-MB-453, ~60% confluency.
From the text: as §2, §3

Assay [7] has as its system Ist-Mes. Briefly: MTT viability assay (IC50). As to conditions: ~60% confluency.
From the text: as §2, §3

The subject of assay [8] is EAhy926. Briefly: MTT viability assay (IC50).
From the text: as §2, §3

In assay [9] the test system is HCT-116. The experiment in a line: MTT viability assay (IC50). As to conditions: HCT-116, ~60% confluency.
From the text: as §2, §3

Assay [10] relates to MCF-7. Briefly: MTT viability assay (IC50). The settings on record: MCF-7, ~60% confluency.
From the text: as §2, §3

Assay [11] relates to MM-BI. The experiment in a line: MTT viability assay (IC50). As to conditions: ~60% confluency.
From the text: as §2, §3

Assay [12] has as its system adherent MCF7 cells. The experiment in a line: Drug induced cell death in adherent MCF7 cells (FIG. 8). As to conditions: 5 μM MitoVES, 50 μM α-TOS or 10 μM parthenolide. As for the experimental part:
as §1

[13] abbreviates: Jurkat, treated at 0.5 × 10^6 per ml, MTT viability curves.
Where [14] appears, read: Table VI: Jurkat 0.5 × 10^6 per ml, analogs added as EtOH solution, MTT.
The mark [15] stands for this setting: EAhy926 treated at 100% confluency (top lines).
[16] abbreviates: EAhy926 treated at ~50% confluency (bottom lines).

Where only a bound is given, the exact number is not on record here.

In the case of `Cc1c(C)c2c(c(C)c1OC(=O)CCC(=O)[O-])CCC(C)(CCCCCCCCCCC[P+](c1ccccc1)(c1ccccc1)c1ccccc1)O2` (centres unmarked) [MitoVE11S], the “sensitivity of MS cells to drug induced cell death” value in [1] is listed as “very sensitive”. For the same molecule, the “apoptosis of MS cells” value in assay [1] (within 5-6 h after adding the drug) was above 90%. Besides, the IC50 in assay [2] (setting [13]) was 0.48 ± 0.1 µM; in assay [2] (setting [14]), 0.48 ± 0.1 µM; in [3] it was 21 ± 4 µM; in assay [4], 1.1 ± 0.25 µM; in assay [5], 2.4 ± 0.5 µM; in assay [6], 3.3 ± 0.7 µM. Moreover, the IC50 in assay [7] came out at 2.2 ± 0.3 µM; in assay [8] (setting [15]), 32 ± 6 µM; in assay [8] (setting [16]) it was 0.7 ± 0.2 µM; in [9], 2.8 ± 0.8 µM; in assay [10], 1.9 ± 0.5 µM; in assay [11] it was 1.4 ± 0.3 µM. Moreover, the “sensitivity of adherent MCF7 cells to drug induced cell death” value in assay [12] is listed as “more so”.

In the case of `Cc1c(C)c2c(c(C)c1OC(=O)CCC(=O)O)CC[C@@](C)(CCC[C@H](C)CCC[C@H](C)CCCC(C)C)O2` [α-TOS, α-tocopheryl succinate, reference compound], in [1], the “sensitivity of MS cells to drug induced cell death” value was “resistant”. In addition, the IC50 in assay [2] (setting [13]) was found to be 18 ± 3 µM; in assay [2] (setting [14]), 18 ± 3 µM; in assay [3], 69 ± 8 µM; in [4] it was 21 ± 3 µM; in assay [5] it was 29 ± 5 µM; in [6], 28 ± 5 µM. For the same molecule, the IC50 in assay [7] was 24 ± 5 µM; in assay [8] (setting [15]), above 100 µM; in assay [8] (setting [16]), 9.5 ± 2.7 µM; in [9], 31 ± 6 µM; in assay [10], 22 ± 4 µM; in [11], 26 ± 4 µM. The “sensitivity of adherent MCF7 cells to drug induced cell death” value in assay [12] is given as “sensitive to killing”.
